{
  "source": "patent US20240209423A1",
  "about": "“METHODS AND COMPOSITIONS FOR REDUCING AUTOFLUORESCENCE” (Advanced Cell Diagnostics, Inc., priority 2021, published 2024)",
  "key": {"[1]": {"system": "tissue autofluorescence in FFPE mouse multi-tissue arrays", "assay": "Quinone compounds tested for tissue autofluorescence quenching, FFPE mouse multi-tissue arrays", "conditions": "incubated for 30 min; compared with 4×SSC untreated control slide", "method": "Multiple quinone compounds were tested for tissue autofluorescence quenching effects on FFPE mouse multi-tissue arrays. After bake, deparaffinization, and pretreatment to permeabilize the tissue, 4×SSC or quinone derivative was applied to the tissue and incubated for 30 min. After washing DAPI was applied to stain the nucleus. Slides were then mounted with prolong gold and scanned using the same microscopic settings. A reduction in autofluorescence was determined by comparing the fluorescence on the quinone derivative treated slide with a 4×SSC untreated control slide."}, "[2]": {"system": "FFPE mouse multi tissue array", "assay": "Quinone treatment condition optimization, RNAscope HiPlex, FFPE mouse multi tissue array"}, "[3]": {"system": "autofluorescence in human FFPE lung cancer tissue", "assay": "RNAscope HiPlex assay with p-benzoquinone treatment, human FFPE lung cancer tissue", "conditions": "100 mM in 4×SSC, vs 4×SSC alone", "method": "(§1) RNAscope® HiPlex assays were conducted to detect four positive control genes in mouse FFPE kidney tissue. ZZ probes for 12 different targets were hybridized together to a mouse multi-tissue array prepared as formalin-fixed paraffin embedded sections, and the hybridization signals were amplified together by successive rounds of hybridization with the preamplifier and amplifier sequences. Autofluorescence quenching was performed by application of p-benzoquinone (100 mM in 4× Saline-Sodium Citrate (SSC)) onto the slides for 30 minutes at room temperature, followed by detection of four (Ppib, Ubc, Polr2a and Hprt1) of the 12 target genes using fluorescent label probes corresponding to the signal amplification systems assigned to these four target probes and the fluorophores Alexa 488, DyLight 550, DyLight 650 and Alexa 750 respectively (bottom panels). On a separate slide, 4×SSC buffer alone was used as the untreated control. Nuclei were stained with DAPI."}, "[4]": {"system": "FFPE human tumor microarray", "assay": "Quinone treatment condition optimization, RNAscope HiPlex, FFPE human tumor microarray", "set-up": "key to the marks not given beside the values", "conditions": "100 mM, 30 min, Polr2a, PPIB, UBC, Hprt1", "method": "Major factors tested for p-benzoquinone were chemical concentration, incubation time, and fluorescent dyes."}, "[5]": {"system": "human head and neck FFPE tissue", "assay": "CD20 immunofluorescence after p-benzoquinone treatment, human head and neck FFPE tissue", "conditions": "40 mM in 4×SSC, 30 min, CD20, Opal 520", "description": "CD20 was detected in human head and neck FFPE tissue. After bake, deparaffmization, and pretreatment to permeabilize the tissue, 4×SSC (untreated control) or p-benzoquinone (pBQ) (40 mM in 4×SSC) was applied onto the tissue and incubated for 30 min. After washing, mouse anti-CD20 primary antibody (Leica Ready to Use) was applied for 1 hour at room temperature (RT). Signal was amplified by rabbit anti-mouse post primary antibody (Leica Ready to Use) and goat anti-rabbit Alexa 488 secondary antibody (Leica Ready to Use) conjugated to HRP. Signal was detected using Opal 520 (Akoya Bio) diluted 1:500 in TSA buffer. The images were taken with the same exposure settings."}, "[6]": {"system": "autofluorescence in non-human primate fixed frozen liver tissue", "assay": "RNAscope HiPlex assay with p-benzoquinone treatment, non-human primate fixed frozen liver tissue", "conditions": "100 mM in 4×SSC, vs 4×SSC alone"}, "hTMAc": {"system": "hTMAc", "assay": "Antibody compatibility with pBQ treatment (immunofluorescence), hTMAc", "conditions": "CD3, Leica mouse anti-CD3 1:200, Goat anti-rabbit AF488 1:500", "method": "(§2) CD20 was detected in human head and neck FFPE tissue. After bake, deparaffmization, and pretreatment to permeabilize the tissue, 4×SSC (untreated control) or p-benzoquinone (pBQ) (40 mM in 4×SSC) was applied onto the tissue and incubated for 30 min. After washing, mouse anti-CD20 primary antibody (Leica Ready to Use) was applied for 1 hour at room temperature (RT). Signal was amplified by rabbit anti-mouse post primary antibody (Leica Ready to Use) and goat anti-rabbit […] secondary antibody (Leica Ready to Use) conjugated to HRP. Signal was detected using Opal 520 (Akoya Bio) diluted 1:500 in TSA buffer. The images were taken with the same exposure settings. The brightness of the pBQ treated slide was increased by two-fold to achieve optimal display.\n(§3) Additional antibodies were tested for compatibility with p-benzoquinone treatment, using the same general experimental method as described above."}, "[7]": {"system": "autofluorescence in mouse FFPE kidney tissue", "assay": "RNAscope HiPlex assay with p-benzoquinone autofluorescence quenching, mouse FFPE kidney tissue", "conditions": "100 mM in 4× SSC, 30 minutes at room temperature, vs 4×SSC control", "method": "as §1"}, "[8]": {"assay": "Maximum solubility in 4×SSC", "format": "physicochemical", "conditions": "4×SSC buffer, aqueous buffer"}, "[9]": {"system": "autofluorescence in FFPE Human Brain Tissues", "assay": "Quenching of endogenous and lipofuscin autofluorescence, unstained FFPE human brain tissues", "conditions": "100 mM in 4×SSC", "method": "The present methods are effective at partially reducing autofluorescence caused by lipofuscin pigment granules that are most commonly found in brain tissues. FFPE Human Brain Tissues were treated with or without pBQ and imaged without staining to reveal tissue endogenous autofluorescence."}, "FFPE mouse brain": {"system": "FFPE mouse brain", "assay": "Antibody compatibility with pBQ treatment (immunofluorescence), FFPE mouse brain", "conditions": "NeuN, Chicken anti NeuN 1:500, Goat anti-chicken AF555 1:500", "method": "as §2, §3"}, "[10]": {"system": "mouse fresh frozen tissue", "assay": "RNAscope HiPlex assay with p-benzoquinone treatment, mouse fresh frozen tissue", "conditions": "100 mM in 4×SSC", "method": "as §1\nYet another similar experiment was conducted using mouse fresh frozen tissue, with detection of four of the twelve targets (Polr2a, Ppib, Ubc, and Hprt1)."}, "mouse FFPE liver tissue": {"system": "mouse FFPE liver tissue", "assay": "Dye compatibility with p-benzoquinone treatment, RNAscope, mouse FFPE liver tissue", "conditions": "p-benzoquinone applied after Amp 3", "source_text": "To evaluate the compatibility of certain dyes, targets were detected in mouse FFPE liver tissue, using the p-benzoquinone treatment step. […] Experimentally, these targets were detected using RNAscope® double Z probes and signals were amplified using an RNAscope® amplification system (Amp 1, 2, 3), with p-benzoquinone applied after Amp 3."}},
  "data": [
    {"smiles": "O=C1C=C(Cl)C(=O)C=C1Cl", "note": "[2,5-Dichloro-1,4-benzoquinone]", "values": [
      {"measurement": "Autofluorescence quenching effect", "setting": "[1]", "value": "Yes"}
    ]},
    {"smiles": "COC1=CC(=O)C(OC)=CC1=O", "note": "[2,5-Dimethoxy-(1,4)-benzoquinone]", "values": [
      {"measurement": "Autofluorescence quenching effect", "setting": "[1]", "value": "No"}
    ]},
    {"smiles": "O=C1C=C(Cl)C(=O)C(Cl)=C1", "note": "[2,6-Dichloro-1,4-benzoquinone]", "values": [
      {"measurement": "Autofluorescence quenching effect", "setting": "[1]", "value": "Yes"}
    ]},
    {"smiles": "COC1=CC(=O)C=C(OC)C1=O", "note": "[2,6-Dimethoxy-1,4-benzoquinone]", "values": [
      {"measurement": "Autofluorescence quenching effect", "setting": "[1]", "value": "No"}
    ]},
    {"smiles": "CC1=CC(=O)C=C(C)C1=O", "note": "[2,6-Dimethylbenzoquinone]", "values": [
      {"measurement": "Autofluorescence quenching effect", "setting": "[1]", "value": "No"}
    ]},
    {"smiles": "O=C1C=CC(=O)C(Cl)=C1", "note": "[2-Chloro-1,4-benzoquinone]", "values": [
      {"measurement": "Autofluorescence quenching effect", "setting": "[1]", "value": "Yes"}
    ]},
    {"smiles": "COC1=CC(=O)C=CC1=O", "note": "[2-methoxybenzo-1,4-quinone]", "values": [
      {"measurement": "Autofluorescence quenching effect", "setting": "[1]", "value": "Yes"}
    ]},
    {"smiles": "Oc1ccc(O)cc1", "note": "[Hydroquinone]", "values": [
      {"measurement": "Autofluorescence quenching effect", "setting": "[1]", "value": "Yes"},
      {"measurement": "Signal/noise ratio", "setting": "[2]; 20 mM, 4 d, with light exposure", "value": "−−+"},
      {"measurement": "Signal/noise ratio", "setting": "[2]; 20 mM, 6 d, with light exposure", "value": "−−+"},
      {"measurement": "Signal/noise ratio", "setting": "[2]; 200 mM, 2 d, with light exposure", "value": "−−+"},
      {"measurement": "Signal/noise ratio", "setting": "[2]; 200 mM, 4 d, with light exposure", "value": "−++"},
      {"measurement": "Signal/noise ratio", "setting": "[2]; 200 mM, 5 d, with light exposure", "value": "−++"},
      {"measurement": "Signal/noise ratio", "setting": "[2]; 200 mM, 6 d, with light exposure", "value": "−++"},
      {"measurement": "Signal/noise ratio", "setting": "[2]; Buffer 2x SSC (20 mM, 4 d, with light exposure)", "value": "−−+"},
      {"measurement": "Signal/noise ratio", "setting": "[2]; Buffer 4x SSC (20 mM, 4 d, with light exposure)", "value": "−−+"},
      {"measurement": "Signal/noise ratio", "setting": "[2]; Buffer Decal (20 mM, 4 d, with light exposure)", "value": "−−+"},
      {"measurement": "Signal/noise ratio", "setting": "[2]; Buffer RNAase later/inhibitor (20 mM, 4 d, with light exposure)", "value": "−−+"},
      {"measurement": "Signal/noise ratio", "setting": "[2]; Light exposure Yes (200 mM, 2 d)", "value": "−−+"},
      {"measurement": "Signal/noise ratio", "setting": "[2]; Workflow position After Amp1 (20 mM, 2 d, with light exposure)", "value": "−−+"},
      {"measurement": "Signal/noise ratio", "setting": "[2]; Workflow position After Amp2 (20 mM, 2 d, with light exposure)", "value": "−−+"},
      {"measurement": "Signal/noise ratio", "setting": "[2]; Workflow position After Amp3 (20 mM, 2 d, with light exposure)", "value": "−++"}
    ]},
    {"smiles": "CC1=CC(=O)C=CC1=O", "note": "[Methyl-p-benzoquinone]", "values": [
      {"measurement": "Autofluorescence quenching effect", "setting": "[1]", "value": "No"}
    ]},
    {"smiles": "O.O=C1C(O)=C(O)C(=O)C(O)=C1O", "note": "[Tetrahydroxy-1,4-quinone hydrate]", "values": [
      {"measurement": "Autofluorescence quenching effect", "setting": "[1]", "value": "No"}
    ]},
    {"smiles": "O=C1C=CC(=O)C=C1", "note": "[p-benzoquinone]", "values": [
      {"measurement": "effect on tissue autofluorescence", "setting": "[3]", "value": "reduced autofluorescence"},
      {"measurement": "Signal/noise ratio", "setting": "[4]", "value": "+++"},
      {"measurement": "compatibility of autofluorescence quenching treatment with immunofluorescence", "setting": "[5]", "value": "compatible with immunofluorescence assays"},
      {"measurement": "effect on tissue autofluorescence", "setting": "[6]", "value": "reduced autofluorescence"},
      {"measurement": "Autofluorescence quenching effect", "setting": "[1]", "value": "Yes"},
      {"measurement": "Signal/noise ratio", "setting": "[2]; 2 mM, overnight, Polr2a, PPIB, UBC, Hprt1", "value": "+++"},
      {"measurement": "Signal/noise ratio", "setting": "[2]; 20 mM, 30 min", "value": "−−+"},
      {"measurement": "Signal/noise ratio", "setting": "[2]; 100 mM, 30 min", "value": "+++"},
      {"measurement": "Signal/noise ratio", "setting": "[2]; 200 mM, 30 min", "value": "+++"},
      {"measurement": "Signal/noise ratio", "setting": "[2]; Fluorescent dyes: Alexa dyes", "value": "+++"},
      {"measurement": "Signal/noise ratio", "setting": "[2]; Fluorescent dyes: Dylight dyes", "value": "+++"},
      {"measurement": "IF Signal compared to control", "setting": "hTMAc", "value": "Weaker"},
      {"measurement": "effect on tissue autofluorescence", "setting": "[7]", "value": "effectively reduced autofluorescence"},
      {"measurement": "solubility", "setting": "[8]", "value": 100, "unit": "mM"},
      {"measurement": "effect on lipofuscin autofluorescence (dot-like and clusters of fluorescence)", "setting": "[9]", "value": "partially quenches lipofuscin autofluorescence"},
      {"measurement": "effect on lipofuscin autofluorescence (dot-like and clusters of fluorescence)", "setting": "[9]; listed as p-Benzoquinone", "value": "reduced but not completely eliminated"},
      {"measurement": "effect on fixation induced haze background", "setting": "[9]; vs no pBQ control", "value": "greatly reduced"},
      {"measurement": "IF Signal compared to control", "setting": "FFPE mouse brain", "value": "Weaker"},
      {"measurement": "compatibility with RNA in situ hybridization assay", "setting": "[10]", "value": "compatible"},
      {"measurement": "target detection with ATTO dye label probes after p-benzoquinone treatment", "setting": "mouse FFPE liver tissue; ATTO 550 (UBC), ATTO 647N (POLR2A)", "value": "did not lead to successful detection"},
      {"measurement": "target detection with Dylight label probes after p-benzoquinone treatment", "setting": "mouse FFPE liver tissue; Dylight 550 (UBC), Dylight 650 (POLR2A)", "value": "successfully detected"}
    ]}
  ]
}
